# Assay results from patent US20100087474A1, “MATERIALS AND METHODS FOR ENHANCED DEGRADATION OF MUTANT PROTEINS ASSOCIATED WITH HUMAN DISEASE” (UNIVERSITY OF FLORIDA, priority 2005, published 2010).
# Values joined by “and” are separate entries in the source; they are usually repeats but may differ in a detail not shown here. Identical values can stand only once. “Also recorded” adds a separate entry of the source. Residues, ends and D or L forms follow the SMILES beside them. *: point of attachment. Cbz = O=C(OCc1ccccc1)*
# Legend:
# P23H opsin = P23H opsin degradation in HEK293 stable cells (immunoblot); type: cell-based, human; conditions: for effect of inhibitor on FTI-277 induced P23H opsin degradation: in the presence of FTI-277, 3MA 10 mM, MG132 25 μM; for effect of inhibitor on P23H opsin degradation: inhibitor added at autophagy induction, amino acid depleted cells; for loss of P23H opsin: after 12 hours, FTI-277 50 μM, rapamycin 50 nM
# Protocol: Wild-type and P23H opsin were expressed in HEK293 tetracycline-inducible stable cell lines. The cells were grown in Dulbecco's modified Eagle's medium containing high glucose (Invitrogen, San Diego, Calif.) supplemented with 10% heat inactivated fetal bovine serum (Sigma) with antibiotic-antimycotic solution (Invitrogen, San Diego, Calif.), blasticidin (Cayla, Toulouse, France), zeocin (Invitrogen, San Diego, Calif.) at 37 C in the presence of 5.0% CO2. Opsin synthesis in cells was induced by addition of tetracycline (1 μg/ml). Baby hamster kidney (BHK) cell lines stably expressing the wild type and ΔF508 CFTR variant with a C-terminal HA epitope (CFTR-HA) (See Sharma et al., J. Cell Biol. 2004 164(6):923-33). The cells were grown in DMEM/F12 (Invitrogen, San Diego, Calif.) 1:1 ratio with 10% FBS at 37° C. in the presence of 5.0% CO2.
# Autophagy was induced in cells by incubating them in amino-acid depleted medium or treating them with rapamycin ([…]), or both. Cells were incubated under autophagy inducing conditions for two, six, or twelve hours. At the indicated time point the cells were lysed in 1% n-dodecyl-β-maltoside (DM) (Anatrace, Maumee, Ohio) in the presence of protease inhibitors (complete protease inhibitor mixture tablets (Roche Molecular Biochemicals, Mannheim, Germany) for 1 hour at 4° C. The cells were centrifuged at 36,000 rpm in a Beckman ultracentrifuge for 30 minutes at 4 C. The lysate was collected and immunoblotting was performed.
# (§1) Cell lysates were electrophoresed on 10% SDS polyacrylamide gels and transferred onto Immobilon-NC (Millipore, Billerica, Mass.) nitrocellulose membranes. The membranes were incubated at room temperature for 1 hour with a commercially available blocking buffer (Li-Cor, Lincoln, Nebr.) diluted 1:1 in PBST (PBS with 0.1% triton X-100, pH 7.4), followed by a 1 hour incubation with the indicated primary antibody. The blots were washed three times for 5 minutes each in PBST, and incubated for 1 hour with a true near infrared dye, IRDye800-conjugated secondary antibody (Rockland Immunochemicals Inc., Gilbertsville, Pa.). Finally the membranes were again washed three times with PBST and scanned in an Odyssey infrared scanner (Li-Cor, Lincoln, Nebr.). Quantitations on immunoblots were performed using Licor software. Primary antibodies included antibodies to opsin, HA-tag (Covance Princeton, N.J.), mTOR, phosphorylated mTOR (Upstate Charlottesville, Va.), calnexin, hsp70 (Stressgen, Victoria, BC, CA), Bip (BD PharMingen, San Diego, Calif.) to tubulin (Sigma Chemical, St. Louis, Mo.), 1D4 (University of British Columbia), Akt, phospho-Akt, S6K, phospho-S6K, MAPK and phosphor-MAPK (Cell Signaling Technology, Beverly, Mass.).
# Following tetracycline wash off, cells were treated for 0, 2, 6 and 12 hours then lysed in phosphate buffer containing 1% n-dodecyl-β-maltoside (DM) (Anatrace) in the presence of protease inhibitors (complete protease inhibitor mixture tablets; Roche Molecular Biochemicals) for 1 hour at 4° C. As a positive control for autophagy, cells were treated with rapamycin (50 nM), following tetracycline wash off. The lysates were centrifuged at 36,000 rpm in a Beckman ultracentrifuge for 10 min at 4C. The supernatant was collected and immunoblotting was performed. 3-methyladenine (3MA), which blocks autophagy (10 mM) (Sigma Chemical (St. Louis, Mo.)) and MG132 (25 μM) (Sigma Chemical (St. Louis, Mo.)) were also used.
# [1] = test system: HuH7 hepatoma cells stably expressing GFP-LC3; assay: GFP-LC3 localization in HuH7 hepatoma cells (confocal); type: cell-based; conditions: FTI-277 treated versus fed cells
# Protocol: HuH7 hepatoma cells were stably transfected with pGFP-LC3 (Ogawa et al., Science 307(5710): 727-731, 2005) using a lipid optimization kit, the PerFect lipid (pFx-3), purchased from Invitrogen (San Diego, Calif.). PFX-3 (Invitrogen) according to manufacturer's protocols. Those colonies that grew in the presence of 0.5 mg/ml G418 were then isolated, amplified, and screened for GFP-LC3 expression by fluorescence microscopy and Western blotting.
# (§2) Staining with lysotracker (Molecular Probes) was also performed on live cells at 37° C. Confocal imaging was performed using the Leica TCS SP2 AOBS Spectral Confocal Microscope at 63× magnification.
# Rheb = conditions: Basso et al., 2005; cited from earlier work
# [2] = test system: Bip, calnexin, calreticulin, Hsp70, Hsp90; assay: UPR/HSR chaperone levels in opsin-expressing HEK293 cells (immunoblot); type: cell-based, human; conditions: FTI-277 treatment, time-dependent
# Protocol: as §1
# (§3) FTI-277 (Calbiochem) was used at 50 μM. […]
# mTOR = mTOR phosphorylation in opsin-expressing HEK293 cells (immunoblot); type: cell-based, human
# Protocol: Cell lysates were electrophoresed on 10% SDS polyacrylamide gels and transferred onto Immobilon-NC (Millipore, Billerica, Mass.) nitrocellulose membranes. The membranes were incubated at room temperature for 1 hour with a commercially available blocking buffer (Li-Cor, Lincoln, Nebr.) diluted 1:1 in PBST (PBS with 0.1% triton X-100, pH 7.4), followed by a 1 hour incubation with the indicated primary antibody. The blots were washed three times for 5 minutes each in PBST, and incubated for 1 hour with a true near infrared dye, IRDye800-conjugated secondary antibody (Rockland Immunochemicals Inc., Gilbertsville, Pa.). Finally the membranes were again washed three times with PBST and scanned in an Odyssey infrared scanner (Li-Cor, Lincoln, Nebr.). Quantitations on immunoblots were performed using Licor software. […]
# [3] = test system: HEK293 cells expressing P23H opsin; assay: electron microscopy morphometric quantification of autophagic vacuoles (AVs); type: cell-based, human; conditions: FTI-277 for two hours and six hours
# Protocol: P23H opsin-expressing cells were grown on ACLAR sheets in a 24-well plate. […] Following a wash with PBS, cells were fixed with 2% paraformaldehyde, 2% glutaraldehyde in 0.1M sodium cacodylate buffer, pH 7.4 for 30 minutes at 4° C. and processed for CMPase cytochemistry as previously described (31). Morphometric quantification of AVs was done on 20 electron micrographs per condition using Image J software T-test analysis was performed and P value (two-tailed significance) under or equal to 0.05 was considered significant (marked with asterisk).
# S6 kinase = S6 kinase phosphorylation in HEK293 cells (immunoblot); type: cell-based, human; conditions: within two hours of treatment
# Protocol: as §1, §3
# MAPK = MAPK phosphorylation in HEK293 cells (immunoblot); type: cell-based, human; conditions: FTI-277 treatment
# Protocol: as §1, §3
# Akt = Akt phosphorylation in HEK293 cells (immunoblot); type: cell-based, human; conditions: FTI-277 treatment
# Protocol: as §1, §3
# [4] = test system: HEK293 cells expressing P23H opsin; assay: immunocolocalization of autophagosome markers Atg7 and Atg8 with P23H opsin; type: cell-based, human; conditions: FTI-277 treatment versus untreated cells in complete medium
# Protocol: Cells were grown on glass coverslips and fixed in 4% paraformaldehyde. Following quenching with 50 mM NH4Cl, cells were washed with PBS and incubated for 1 hour with the indicated primary antibody at room temperature. Cells were washed five times in PBS and incubated with a secondary antibody (TRITC- and FITC-conjugate) for 1 hour. The cells were washed again and mounted with Vectashield containing DAPI. Primary antibodies included antibodies to LC3, LAMP-1, Atg7 (Dr Dunn), opsin, Atg7^20, Atg8 and HA-tag. The cells were then observed using a Zeiss Axiophot microscope.
# as §2
# [5] = test system: HEK293 cells expressing P23H opsin; assay: lysotracker staining of lysosomal vacuoles; type: cell-based, human
# Protocol: as §2
# [6] = test system: P23H heterozygous mutant mice; assay: ERG retinal function in P23H mouse model of retinitis pigmentosa; type: in vivo; conditions: rapamycin once per week from twenty-one days old; course of three months
# Protocol: Mice expressing the P23H opsin protein are described by Liu et al., Journal of Cell Science 110, 2589-2597 (1997).
# Heterozygous P23H transgenic mice were treated once per week with rapamycin beginning when the mice were twenty-one days old.
# (§4) The mice are dark adapted twenty-four hours prior to ERG. A mix of ketamine and xylazine was used to anesthestize mice. Dosage was determined by weight. Mouse eyes were numbed with proparacaine drops and dilated with Ak-dilate. The mouse was then placed on the machine (UTAS-E 2000) a ground electrode was inserted into the hind limb, another electrode was inserted into the neck, and a pair of electrode was used to record the ERG from each eye. After getting a baseline reading, the ERG was measured at 20, 10 and 0 dB. Monthly ERG's were measured and the B-wave amplitude was determined.
# [7] = cited from earlier work
# [8] = test system: Abcr heterozygous mutant mice; assay: ERG retinal function in mouse model of macular degeneration; type: in vivo; conditions: rapamycin 20 mg/kg once per week intraperitoneal from four months old
# Protocol: abcr+/− mice are described by Mata et al., Investigative Opthalmology and Visual Science. 2001; 42:1685-1690.
# abcr+/− mice were treated with 20 mg/kg of rapamycin once per week beginning when the mice were four months old. The rapamycin was administered by intraperitoneal injection.
# as §4
smiles,measurement,setting,value
CC(C)C[C@@H](C=O)NC(=O)[C@H](CC(C)C)NC(=O)[C@H](CC(C)C)NC(=O)OCc1ccccc1 [MG132] (Cbz-Leu-Leu-Leu-aldehyde),effect of inhibitor on FTI-277 induced P23H opsin degradation,P23H opsin,did not interfere
same,effect of inhibitor on P23H opsin degradation,P23H opsin,no effect
"COC(=O)[C@H](CCSC)NC(=O)c1ccc(NC[C@@H](N)CS)cc1-c1ccccc1 [FTI-277, methyl {N-[2-phenyl-4-N[2(R)-amino-3-mercaptopropylamino]benzoyl]}-methionate]",GFP-LC3 localization,[1],localized to numerous structures consistent with its association with autophagic vacuoles
same,prenylation of Rheb,Rheb,completely block
same,"levels of calnexin, calreticulin, Hsp70 and Hsp90 (UPR and HSR)",[2],did not affect
same,dephosphorylation of mTOR,mTOR; FTI-277 in combination with amino acid and serum starvation,further enhanced
same,phosphorylation of mTor,"mTOR; FTI-277 treatment, time course of twelve hours",effectively inhibited
same,increase in the fractional volume of AVs compared to untreated cells,[3],4 to 6 fold and 6 fold
same,phosphorylation of S6 kinase,S6 kinase,dramatically reduced
same,degradation of P23H opsin,P23H opsin; FTI-277 at 10 μM,No effect
same,degradation of P23H opsin,P23H opsin; FTI-277 at 50 μM,time-dependent degradation
same,loss of P23H opsin,P23H opsin,50%
same,degradation of P23H rhodopsin (Western blot),P23H opsin; fed cells treated with 10 μM or 50 μM FTI277 (FIG. 8),induced the rapid degradation
same,MAPK phosphorylation,MAPK,slight increase
same,stimulation of Akt phosphorylation,Akt,unaffected
same,colocalization of Atg7 and Atg8 with P23H opsin,[4],dramatic increase
same,lysosomal numbers and size (lysotracker),[5],increase
"Cn1cnc(N)c2ncnc1-2 [3-MA, 3-methyladenine]",effect of inhibitor on FTI-277 induced P23H opsin degradation,P23H opsin,prevented degradation of opsin; also recorded: inhibited P23H opsin degradation
same,effect of inhibitor on P23H opsin degradation,P23H opsin,inhibited P23H degradation
CC1=C(/C=C/C(C)=C/C=C/C(C)=C/C=O)C(C)(C)CCC1 [11-cis retinal],levels of P23H degradation,P23H opsin; 11-cis retinal administered at the time autophagy was induced,not altered
same,P23H protein degradation profile versus wild-type opsin and untreated P23H cells,P23H opsin; 11-cis retinal during amino acid depletion,intermediate degradation profile
CO[C@H]1C[C@@H]2CC[C@@H](C)[C@@](O)(O2)C(=O)C(=O)N2CCCC[C@H]2C(=O)O[C@H]([C@H](C)C[C@@H]2CC[C@@H](O)[C@H](OC)C2)CC(=O)[C@H](C)/C=C(\C)[C@@H](O)[C@@H](OC)C(=O)[C@H](C)C[C@H](C)/C=C/C=C/C=C/1C [rapamycin],retinal function (ERG),[6],rescued retinal function; also recorded: enhances retinal function
same,loss of P23H opsin,P23H opsin,70%
same,absorption after oral administration,[7],absorbed rapidly and completely
same,retinal function (ERG),[8],rescues retinal function; also recorded: enhances retinal function
